The source of these data is PMC11919252 (eLife, 2025).

The subject of assay [1] is WT and Tac1::Calca DKO mice. The experiment in a line: Conditioned taste aversion. It is filed as in vivo, mouse. Particulars: LiCl 200 mg/kg; saccharin 15 mM; WT n=7, DKO n=6. The protocol:
Mice were single-housed and habituated for 3 days to drink from two glass bottles with stainless-steel ball-bearing spouts. Mice then received 3 days of training, where they were water-deprived for 22 hr followed by 30 min exposure to a single water-containing bottle, then 90 min exposure to both bottles. On the conditioning day, after 22 hr of water deprivation, mice were exposed to a single bottle containing saccharin water (15 mM) for 45 min. Mice were then injected with lithium chloride (200 mg/kg) or PBS, and then given ordinary water for 75 min. The animals were then water deprived for a further 22 hr. On the test day, mice were simultaneously exposed to a bottle containing water and a bottle containing saccharin for 45 min. The volume of each solution consumed was measured by weighing the bottles before and after. To calculate the saccharin preference index of each animal, the volume of saccharin consumed was divided by the total of fluid consumed, with a value less than 0.5 indicating the development of an aversion to saccharin.

Assay [2] deals with Substance P receptor (NKR1) in Substance P-sniffer HEK293 cells co-cultured with DRG neurons. The experiment in a line: Co-culture of DRG neurons and Substance P-sniffer cells (Substance P release). To be noted: capsaicin 10 μM. It counts as cell-based, mouse.
For assay [3], the system named is hindpaw of WT and DKO mice. Description: Hindpaw swelling (edema), plethysmometer. Particulars: for Swelling of the hindpaw, DKO versus WT: observation after injection of CFA, PGE2, AITC or capsaicin. It counts as in vivo, mouse. Here is the method:
(§1) Mice were anesthetized using isoflurane. 200 μl of Evans Blue dye was injected into the mouse’s tail vein. 15 mins later, one hindpaw was injected with an algogen. After a further 30 min, the volume of each paw was measured by displacement using a plethysmometer (Ugo Basile). Both paws were then cut at the ankle and placed in tubes in the oven at 55 °C for 24 hr to dry. 1 ml of formamide was then added to each paw and incubated for 4-6 days at 55 °C to extract the dye from the paw tissue. 50 μl samples of dye-infused formamide from each paw were then dispensed to a 96-well plate in duplicate, along with a range of Evans blue dilutions in formamide to generate a standard curve. The optical density of each sample was then measured using a plate-reader, and the concentration of Evans Blue per paw sample interpolated from the standard curve to generate an index of extravasation in that paw.

In assay [4] the test system is dorsal horn of WT and DKO mice. Description: Capsaicin-evoked dorsal horn Fos staining. It counts as in vivo, mouse. Particulars: capsaicin 0.3% hindpaw; WT n=5, DKO n=4. The protocol:
[…]. After 1 week, mice were habituated then the stimulation was performed. For capsaicin-evoked dorsal horn Fos, capsaicin (0.3%) was injected into the right hindpaw of mice in chambers on a plexiglass stand. For Fos elicited by dynamic allodynia stimulation, mice that received a spared nerve injury procedure 3 weeks prior were stimulated with a paint brush while housed on a wire mesh stand (3x10 min stimulation period, with 1-min rest every 10 min). Note that for SNI experiments, the CTB was injected into the contralateral paw, because severing two branches of the sciatic nerve would have prevented efficient CTB transit in the ipsilateral paw. The mice were perfused as above and spinal cords were harvested 75–120 min after stimulation. The sections were incubated in a blocking buffer (5% goat serum; 0.1% Triton X-100; PBS) for 3 hr at room temperature on a shaker. The sections were incubated in 1:1000 rabbit anti Fos primary antibody (Cell Signaling Technology, Phospho-c-Fos (Ser32) (D82C12) XP Rabbit mAb, #5348) at room temperature overnight. […] This ensured Fos activity was measured only in those sections strongly innervated by the hindpaw. The number of Fos-positive nuclei in the dorsal horn were quantified in ImageJ/FIJI software (National Institute of Health) by a blinded observer using a semi-automated procedure. […]

For assay [5], the system named is hindpaw of WT and DKO mice. Description: Plasma extravasation, Evans blue assay. It is filed as in vivo, mouse. To be noted: for Paw swelling and plasma extravasation (images): injected (left) compared to uninjected (right) paw, WT and DKO mice. Here is the method:
as §1

Assay [6] has as its system CGRP receptor (Calcrl and Ramp1) in CGRP-sniffer HEK293 cells co-cultured with DRG neurons. Description: Co-culture of DRG neurons and CGRP-sniffer cells (CGRP release). It counts as cell-based, mouse.
In assay [7] the test system is WT and Tac1::Calca DKO mice. The experiment in a line: Capsaicin-evoked licking. It is filed as in vivo, mouse. To be noted: 0.3% capsaicin, 20 µl intraplantar, 5 min. Here is the method: (§2) 0.3% capsaicin in 80% saline / 10% Tween-80 /10% ethanol or 1% AITC in saline was injected into the plantar surface of the hind paw. The injected volume for both was 20 µl. Mice were video-taped for 5 min. A blinded observer scored the amount of time in seconds the mouse spent licking the injected paw in a 5-min time period.

For assay [8], the system named is WT and Tac1::Calca DKO mice. The experiment in a line: AITC-evoked licking. It counts as in vivo, mouse. Particulars: 1% AITC in saline, 20 µl intraplantar; 5 min; WT n=12, DKO n=12. Here is the method:
as §2

Assay [9] deals with WT and Tac1::Calca DKO mice. To be noted: 0.6% acetic acid, intraperitoneal, 10 μl/g; 15 min from 5 min after injection; WT n=9, DKO n=7. Here is the method: Mice were habituated on a plexiglass stand for 1 hr. 0.6% of acetic acid was injected intraperitoneally at a dose of 10 μl/g weight of the animal. Mice were videotaped for 20 min. The number of writhes was quantified post-hoc by a blinded observer during a 15-min interval between 5 and 20 min after injection.

The test system of assay [10] is WT and Tac1::Calca DKO mice. The experiment in a line: Inflammatory mechanical hypersensitivity (von Frey). It is filed as in vivo, mouse. To be noted: PGE2 20 μl, 500 nM intraplantar; up to 120 min; WT n=6, DKO n=6. Here is the method: Punctate mechanical sensitivity was measured using the up-down method of Chaplan to obtain a 50% withdrawal threshold ([Chaplan et al., 1994]). Mice were habituated on a mesh wire stand for 1 hr. A 0.16 g Von Frey hair was applied to the plantar region of the paw for 2 s. A response was recorded when the mouse swiftly lifted its paw in response to the stimulus. […] To calculate the 50% withdrawal threshold, five responses surrounding the 50% threshold were obtained after the first change in response. The pattern of responses was used to calculate the 50% threshold = (10[χ+κδ]/10,000), where χ is the log of the final von Frey filament used, κ=tabular value for the pattern of responses and δ the mean difference between filaments used in log units. The log of the 50% threshold was used to calculate summary and test statistics.
(§3) CFA and PGE2 was purchased from Sigma. 20 μl of CFA was injected into the heel of the hind paw. PGE2 (20 μl, 500 nM) was injected into the plantar surface of the hindpaw, and behavior was assessed over the same time-frame that produces in vivo sensitization of nociceptor responses (up to 120 min). Inflammation-induced hypersensitivity was measured using the Hargreaves and the von Frey, as described above.

Assay [11] deals with WT and Tac1::Calca DKO mice. Description: Inflammatory heat hypersensitivity (Hargreaves). It counts as in vivo, mouse. Particulars: PGE2 20 μl, 500 nM intraplantar; up to 120 min; WT n=10, DKO n=10. The protocol:
The radiant heat stimulus was aimed for the centre of the plantar region of the mouse’s hind paw. The active intensity of the low stimulus was 40 intensity units, and of the high stimulus 55. The response latency was recorded for five trials with 10 min breaks in between each trial.
as §3

Assay [12] deals with WT and Tac1::Calca DKO mice. Description: Chloroquine-induced itch. It counts as in vivo, mouse. To be noted: chloroquine 20 μl of 25 μM intradermal, nape of neck; 15 min; WT n=8, DKO n=11. Here is the method:
Hair from the nape of the mouse’s neck was removed 2–3 days prior to behavioral experiments using VEET hair removal cream and the area thoroughly washed and moisturizing cream applied. Mice were habituated to transparent acrylic chambers (10cm x 10cm x 13 cm) 30 min prior to injection. Post habituation, a blinded investigator injected 20 μl of 25 μM Chloroquine diphosphate salt (Sigma-Aldrich: C6628) solution in 0.9% saline intradermally into the nape of the neck using a 31 G insulin syringe. Videos were quantified by a separate blinded investigator with a scratching bout counted each time the mouse attended to the injected area with the hind paw after the paw was removed from the floor or mouth.

“Also recorded” adds a separate entry of the source. Structures can show the parent of a compound that is named as a salt.

In the case of `[Cl-].[Li+]` [LiCl, lithium chloride], the “Conditioned taste aversion to saccharin” value in assay [1] is “pronounced aversion to the usually-preferred saccharin; also recorded: strong and indistinguishable conditioned taste aversion in both WT and DKO mice”.
For `COc1cc(CNC(=O)CCCC/C=C/C(C)C)ccc1O` [capsaicin], the “Substance P-sniffer GCaMP response evoked by capsaicin” value in [2] (DKO DRG neurons) is “no Substance P-sniffer cell responses”; in assay [2] (control (WT) DRG neurons), “robust GCaMP responses”. Further, in [2] (WT versus DKO DRG co-culture, n=12 wells from 2 mice per genotype), the “Substance P-sniffer GCaMP6s fluorescence” value is given as “increase in Substance P-sniffer GCaMP6s fluorescence when cultured with DRGs from WT, but not DKO, mice”. Moreover, the “Paw swelling by volume, WT versus DKO” value in assay [3] (capsaicin injection, 30 min, normalized to uninjected paw, WT n=9, DKO n=7) was “no appreciable differences in capsaicin-induced swelling between WT and DKO mice”. In addition, the “Swelling of the hindpaw, DKO versus WT” value in assay [3] is reported as “provoked swelling of the hindpaw of DKO mice to a similar extent as WT mice”. The “Capsaicin-evoked dorsal horn Fos expression” value in [4] was “No differences in dorsal horn Fos expression were observed”. Also, the Plasma extravasation result in assay [5] (capsaicin injection, Evans blue optical density normalized to uninjected paw, WT n=9, DKO n=7) is reported as “plasma extravasation was intact in DKO mice”. In addition, the “Paw swelling and plasma extravasation (images)” value in assay [5] was “both WT and DKO mice show paw swelling and plasma extravasation”. In assay [6] (capsaicin application, DKO DRG neurons), the “CGRP-sniffer activity evoked by DKO neurons” value is on record as “markedly reduced activity”. Besides, in [6] (capsaicin application, WT DRG neurons), the “CGRP-sniffer calcium response evoked by capsaicin” value is reported as “strong increases in calcium”. The “CGRP-sniffer GCaMP6s fluorescence” value in assay [6] (capsaicin, WT versus DKO DRG co-culture, n=18 wells from 3 mice per genotype) is “increase in CGRP-sniffer GCaMP6s fluorescence when cultured with DRGs from WT, but not DKO, mice”. For the same compound, the “Licking responses after capsaicin” value in assay [7] (WT n=9, DKO n=8) is “evoked coping-like licking responses in both genotypes”. Moreover, the “Licking, difference WT versus DKO after capsaicin” value in assay [7] (unpaired t-test) is “differences did not reach statistical significance”.
For `CC(C)C[C@H](NC(=O)CNC(=O)[C@H](C)NC(=O)[C@H](CC(C)C)NC(=O)[C@H](CCCNC(=N)N)NC(=O)[C@H](Cc1c[nH]cn1)NC(=O)[C@@H](NC(=O)[C@@H](NC(=O)[C@@H]1CSSC[C@H](NC(=O)[C@@H](N)CO)C(=O)N[C@@H](CC(N)=O)C(=O)N[C@@H]([C@@H](C)O)C(=O)N[C@@H](C)C(=O)N[C@@H]([C@@H](C)O)C(=O)N1)C(C)C)[C@@H](C)O)C(=O)N[C@@H](CC(C)C)C(=O)N[C@@H](CO)C(=O)N[C@@H](CCCNC(=N)N)C(=O)N[C@@H](CO)C(=O)NCC(=O)NCC(=O)N[C@H](C(=O)N[C@H](C(=O)N[C@@H](CCCCN)C(=O)N[C@@H](CC(=O)O)C(=O)N[C@@H](CC(N)=O)C(=O)N[C@@H](Cc1ccccc1)C(=O)N[C@H](C(=O)N1CCC[C@H]1C(=O)N[C@H](C(=O)N[C@@H](CC(N)=O)C(=O)N[C@H](C(=O)NCC(=O)N[C@@H](CO)C(=O)N[C@@H](CCC(=O)O)C(=O)N[C@@H](C)C(=O)N[C@@H](Cc1ccccc1)C(N)=O)C(C)C)[C@@H](C)O)C(C)C)C(C)C)C(C)C` [CGRPα], the “CGRP-sniffer activation by exogenous CGRPα” value in assay [6] (CGRPα saturating concentration 100–1000 nM, co-culture with WT and DKO DRG, n=18 wells per genotype) is on record as “activates CGRP-sniffers in both conditions”.
Consider `C=CCN=C=S` [AITC, allyl isothiocyanate], for which, in assay [3], the “Swelling of the hindpaw, DKO versus WT” value is given as “provoked swelling of the hindpaw of DKO mice to a similar extent as WT mice”. The “Paw swelling and plasma extravasation (images)” value in [5] was “both WT and DKO mice show paw swelling and plasma extravasation”. Besides, the “Licking behavior after AITC” value in assay [8] was “evoked similar licking behavior to capsaicin that was unaffected by peptide deletion”.
In the case of `CC(=O)O` [acetic acid], in [9], the Writhing behavior entry is “comparable writhing behavior in both WT and DKO mice”.
For `CCCCC[C@H](O)/C=C/[C@H]1[C@H](O)CC(=O)[C@@H]1C/C=C\CCCC(=O)O` [PGE2, Prostaglandin E2], the “Swelling of the hindpaw, DKO versus WT” value in assay [3] is “provoked swelling of the hindpaw of DKO mice to a similar extent as WT mice”. The “Mechanical hypersensitivity, von Frey” value in assay [10] is “short-lasting heat and mechanical hypersensitivity to a similar extent in both WT and DKO mice”. The “Heat hypersensitivity, Hargreaves” value in assay [11] is “short-lasting heat and mechanical hypersensitivity to a similar extent in both WT and DKO mice”.
As to `CCN(CC)CCCC(C)Nc1ccnc2cc(Cl)ccc12` (centres unmarked) [chloroquine, Chloroquine diphosphate salt], the Scratching result in [12] is on record as “DKO mice scratched robustly”.
